This note sets out measurements from DBAASP.

Among the test systems are Candida albicans; Staphylococcus aureus; Escherichia coli; Acinetobacter baumannii.
Holding throughout (experiment): ≥ marks a high value that may be exact or a test limit, other limits are often not marked, values filed in µg/mL are converted to µM
The subject of assay [1] is Bacillus subtilis ATCC 6633.
The subject of assay [2] is Escherichia coli ATCC 25922.
Assay [3] concerns Candida albicans ATCC 10231.
The test system of assay [4] is Staphylococcus aureus ATCC 25923.
Assay [5] has as its system Acinetobacter baumannii ATCC 19606.
The subject of assay [6] is Pseudomonas aeruginosa ATCC 27853.
The test system of assay [7] is Staphylococcus aureus USA 300.
In assay [8] the test system is Klebsiella pneumoniae ATCC 13883.
Assay [9] concerns Pseudomonas aeruginosa PAO1.
Assay [10] has as its system Bacillus subtilis ATCC 23857.
The subject of assay [11] is Staphylococcus aureus ATCC 33591.
The subject of assay [12] is Salmonella enterica subsp. enterica serovar Typhimurium ATCC 14028.

Converted amounts (≈) assume the structure as drawn. “And” between values parts separate entries of the source, which are not always exact repeats. Equal entries are not always repeated.

As for `C[C@H](N)C(=O)N[C@@H](CCCN=C(N)N)C(=O)N[C@@H](Cc1c[nH]c2ccccc12)C(=O)N[C@@H](CCCN=C(N)N)C(=O)N[C@@H](Cc1ccccc1)C(=O)N[C@@H](CCCCN)C(=O)N[C@@H](Cc1c[nH]c2ccccc12)C(=O)N[C@@H](C)C(=O)N[C@@H](CCCCN)C(=O)N[C@@H](CCCCN)C(=O)O` [ARWRFKWAKK], the MIC – broadly, the lowest concentration that inhibits growth of the organism – was at least 54.5 µM in assay [1], 54.5 µM (≈ 75 µg/mL) in assay [2], 54.5 µM (≈ 75 µg/mL) in assay [3] and 54.5 µM (≈ 75 µg/mL) in assay [4].

Turning to `CC(C)C[C@H](NC(=O)[C@H](CC(C)C)NC(=O)[C@H](CCCCN)NC(=O)[C@H](CCCCN)NC(=O)[C@H](CC(C)C)NC(=O)[C@H](CS)NC(=O)[C@H](CCCCN)NC(=O)[C@H](CC(C)C)NC(=O)[C@@H](N)Cc1ccccc1)C(N)=O` [FLKCLKKLL], the MIC in [2] was 14.5 µM (≈ 16 µg/mL); in assay [5], 14.5 µM (≈ 16 µg/mL); in assay [4], 57.9 µM (≈ 63.9 µg/mL); in assay [6] it was 14.5 µM (≈ 16 µg/mL).

For the compound `CC(C)C[C@H](NC(=O)[C@H](C)NC(=O)[C@H](CCCCN)NC(=O)CNC(=O)[C@H](CC(C)C)NC(=O)[C@H](C)NC(=O)[C@H](CCCCN)NC(=O)[C@H](CC(C)C)NC(=O)[C@H](C)NC(=O)[C@H](CO)NC(=O)[C@H](CC(C)C)NC(=O)[C@H](C)NC(=O)CN)C(N)=O` [GALSALKALGKAL], the minimum inhibitory concentration (MIC) in [2] is over 25 µM; in assay [7] it was 25 µM (≈ 30.3 µg/mL); in [8] it was 25 µM (≈ 30.3 µg/mL); in assay [9], over 25 µM.

As to `CC(C)C[C@H](NC(=O)[C@H](CC(C)C)NC(=O)[C@H](CCCCN)NC(=O)CNC(=O)[C@H](CC(C)C)NC(=O)[C@H](C)NC(=O)[C@H](CCCCN)NC(=O)[C@H](CC(C)C)NC(=O)[C@H](C)NC(=O)[C@H](CO)NC(=O)[C@H](CC(C)C)NC(=O)[C@H](C)NC(=O)CN)C(N)=O` [GALSALKALGKLL], the MIC in [2] is 25 µM (≈ 31.3 µg/mL); in [7] it was 25 µM (≈ 31.3 µg/mL); in [8], 25 µM (≈ 31.3 µg/mL); in [9], over 25 µM.

Turning to `CC[C@H](C)[C@H](NC(=O)[C@H](Cc1cnc[nH]1)NC(=O)[C@H](CCCCN)NC(=O)[C@@H](NC(=O)[C@@H](NC(=O)[C@H](CC(=O)O)NC(=O)[C@H](CC(C)C)NC(=O)[C@H](Cc1ccccc1)NC(=O)CN)C(C)C)C(C)C)C(=O)NCC(=O)N[C@@H](CCCCN)C(=O)N[C@@H](C)C(=O)N[C@@H](C)C(=O)N[C@@H](CC(C)C)C(=O)NCC(=O)N[C@@H](C)C(=O)N[C@H](C(=O)N[C@H](C(=O)N[C@@H](Cc1cnc[nH]1)C(=O)N[C@@H](CC(C)C)C(=O)N[C@H](C(=O)N[C@@H](CC(N)=O)C(=O)N[C@@H](CCC(N)=O)C(N)=O)[C@@H](C)CC)[C@@H](C)O)C(C)C` [GFLDVVKHIGKAALGAVTHLINQ], the minimal inhibitory concentration (MIC) against Candida albicans, against Staphylococcus aureus and in the assay with Escherichia coli was 13.3 µM (≈ 32 µg/mL) in each case.

Regarding `CC[C@H](C)[C@H](NC(=O)CNC(=O)[C@H](C)NC(=O)[C@@H](NC(=O)[C@@H](NC(=O)CN)[C@@H](C)CC)[C@@H](C)CC)C(=O)NCC(=O)N[C@H](C(=O)N[C@@H](CCCCN)C(=O)N[C@H](C(=O)N[C@@H](CCCCN)C(=O)N[C@@H](CCCCN)C(N)=O)[C@@H](C)CC)[C@@H](C)CC` [GIIAGIGIKIKK], the MIC is 64 µM (≈ 77.4 µg/mL) in [2] and at least 128 µM in assay [10].

As to `CC(C)C[C@H](NC(=O)[C@H](CC(C)C)NC(=O)[C@H](CCCCN)NC(=O)CNC(=O)[C@H](CC(C)C)NC(=O)[C@H](CC(C)C)NC(=O)[C@H](CO)NC(=O)[C@H](C)NC(=O)[C@H](CC(C)C)NC(=O)[C@H](CO)NC(=O)[C@H](CC(C)C)NC(=O)[C@H](CC(C)C)NC(=O)CN)C(N)=O` [GLLSLASLLGKLL], the MIC in [2] was found to be 2.16 µM (≈ 2.8 µg/mL); in assay [7] it was 0.78 µM (≈ 1.01 µg/mL); in assay [8], 3.1 µM (≈ 4.02 µg/mL); in assay [9] it was 8.8 µM (≈ 11.4 µg/mL).

On to `CC(C)C[C@H](NC(=O)[C@H](CC(C)C)NC(=O)[C@H](CCCCN)NC(=O)CNC(=O)[C@H](CC(C)C)NC(=O)[C@H](CO)NC(=O)[C@H](CC(C)C)NC(=O)[C@H](CO)NC(=O)[C@H](CC(C)C)NC(=O)[C@H](CC(C)C)NC(=O)CN)C(N)=O` [GLLSLSLGKLL], for which the minimal inhibitory concentration (MIC) in assay [2] is over 25 µM; in assay [7], 25 µM (≈ 27.8 µg/mL); in [8], 25 µM (≈ 27.8 µg/mL); in assay [9] it was over 25 µM.

For the compound `CC[C@H](C)[C@H](NC(=O)[C@H](CCCN=C(N)N)NC(=O)[C@@H](NC(=O)[C@@H](NC(=O)[C@@H]1CCCN1C(=O)[C@@H](NC(=O)[C@@H](NC(=O)[C@@H](NC(=O)[C@@H]1CCCN1C(=O)CNC(=O)[C@H](Cc1ccc(O)cc1)NC(=O)[C@H](CCCCN)NC(=O)[C@H](CCCCN)NC(=O)[C@H](Cc1c[nH]c2ccccc12)NC(=O)[C@H](C)NC(=O)[C@H](CCCN=C(N)N)NC(=O)[C@H](CC(C)C)NC(=O)[C@@H](NC(=O)[C@H](CCCCN)NC(=O)[C@H](CCCN=C(N)N)NC(=O)CNC(=O)[C@H](CC(C)C)NC(=O)[C@H](CCCCN)NC(=O)[C@H](CCCN=C(N)N)NC(=O)[C@H](CC(C)C)NC(=O)CNC(=O)[C@@H](N)CCCCN)[C@@H](C)CC)[C@@H](C)CC)[C@@H](C)CC)C(C)C)[C@@H](C)CC)[C@@H](C)CC)C(=O)O` [KGLRKLGRKILRAWKKYGPIIVPIIRI], the figures for the minimum inhibitory concentration (MIC) (against Acinetobacter baumannii; in assay [5]) were 3.14 µM (≈ 10 µg/mL) and 2.22 µM (≈ 7.07 µg/mL), respectively.

Turning to `C[C@H](NC(=O)[C@H](CCCCN)NC(=O)[C@H](Cc1ccc(O)cc1)NC(=O)[C@H](CCCCN)NC(=O)[C@H](CCCCN)NC(=O)[C@H](CCCCN)NC(=O)[C@H](Cc1ccc(O)cc1)NC(=O)[C@H](CCCN=C(N)N)NC(=O)[C@H](CCCCN)NC(=O)[C@@H](N)CCCCN)C(=O)N[C@@H](Cc1ccc(O)cc1)C(=O)N[C@@H](CCCCN)C(=O)N1CCC[C@H]1C(=O)N[C@@H](Cc1ccc(O)cc1)C(=O)N[C@@H](CCCCN)C(=O)N[C@@H](CCCCN)C(=O)N[C@@H](CCCCN)C(=O)N[C@@H](CCCCN)C(=O)N[C@@H](CCCCN)C(=O)N[C@@H](Cc1ccccc1)C(N)=O` [KKRYKKKYKAYKPYKKKKKF], the MIC in assay [2] is 12.5 µM (≈ 33.5 µg/mL); in assay [11], at least 50 µM; in assay [4], 35.4 µM (≈ 94.7 µg/mL); in assay [6], 100 µM (≈ 268 µg/mL).

For the compound `CC[C@H](C)[C@H](NC(=O)[C@H](CCC(N)=O)NC(=O)[C@H](CC(C)C)NC(=O)[C@H](CCC(N)=O)NC(=O)[C@@H](NC(=O)[C@H](CCCCN)NC(=O)[C@H](Cc1ccccc1)NC(=O)[C@H](Cc1c[nH]c2ccccc12)NC(=O)[C@@H](N)CCCCN)[C@@H](C)CC)C(=O)N[C@@H](CCCCN)C(=O)N[C@@H](CCCCN)C(=O)N[C@@H](Cc1c[nH]c2ccccc12)C(=O)N[C@@H](CCCCN)C(=O)N[C@@H](CC(N)=O)C(=O)N[C@@H](CCCCN)C(=O)N[C@@H](CCCCN)C(N)=O` [KWFKIQLQIKKWKNKK], the results for the minimal inhibitory concentration (MIC) in assay [2] and in [11] were 32 µM (≈ 68.6 µg/mL) and at least 32 µM, respectively.

Take `CC[C@H](C)[C@H](NC(=O)[C@H](CCCCN)NC(=O)[C@@H](NC(=O)[C@H](CCC(N)=O)NC(=O)[C@@H](N)CCCN=C(N)N)[C@@H](C)CC)C(=O)N[C@@H](Cc1c[nH]c2ccccc12)C(=O)N[C@@H](Cc1ccccc1)C(=O)N[C@@H](CCC(N)=O)C(=O)N[C@@H](CC(N)=O)C(=O)N[C@@H](CCCN=C(N)N)C(=O)N[C@@H](CCCN=C(N)N)C(=O)N[C@@H](CC(C)C)C(=O)N[C@@H](CCCCN)C(=O)N[C@@H](Cc1c[nH]c2ccccc12)C(=O)N[C@@H](CCCCN)C(=O)N[C@@H](CCCCN)C(N)=O` [RQIKIWFQNRRLKWKK]: the figures for the minimal inhibitory concentration (MIC) in assay [2] and in assay [11] were 32 µM (≈ 71.3 µg/mL) and at least 64 µM, respectively.

Regarding `CC(C)C[C@H](NC(=O)[C@H](C)NC(=O)[C@H](CCCN=C(N)N)NC(=O)[C@H](CCCN=C(N)N)NC(=O)[C@H](Cc1ccccc1)NC(=O)[C@H](C)NC(=O)[C@H](Cc1c[nH]c2ccccc12)NC(=O)CNC(=O)[C@H](CCCN=C(N)N)NC(=O)[C@@H](N)CCCN=C(N)N)C(=O)N[C@@H](C)C(=O)N[C@@H](Cc1ccc(O)cc1)C(=O)NCC(=O)N[C@@H](CCCN=C(N)N)C(=O)N[C@@H](CCCN=C(N)N)C(N)=O` [RRGWAFRRALAYGRR], the MIC in assay [2] is 22.2 µM and 30 µM; in assay [8], 30 µM (≈ 56.7 µg/mL); in assay [9] it was over 30 µM; in assay [5] it was over 30 µM; in assay [12], 14.8 µM and 30 µM; in assay [4] it was over 30 µM.

Consider `CC[C@H](C)[C@H](NC(=O)[C@H](CCCCN)NC(=O)[C@H](CS)NC(=O)[C@H](C)NC(=O)[C@@H](NC(=O)[C@H](Cc1ccccc1)NC(=O)CNC(=O)[C@H](CC(C)C)NC(=O)CNC(=O)[C@@H](NC(=O)[C@H](CCCCN)NC(=O)CNC(=O)[C@H](CC(C)C)NC(=O)[C@H](CC(N)=O)NC(=O)[C@H](CCCN=C(N)N)NC(=O)[C@H](CC(C)C)NC(=O)[C@@H](NC(=O)[C@H](CO)NC(=O)[C@H](CC(C)C)NC(=O)[C@H](CCSC)NC(=O)[C@@H](N)CO)C(C)C)C(C)C)C(C)C)C(=O)N[C@@H](CC(N)=O)C(=O)N[C@@H](CCCCN)C(=O)N[C@@H](CCC(N)=O)C(=O)N[C@@H](CS)C(=O)O` [SMLSVLRNLGKVGLGFVACKINKQC], for which the MIC against Candida albicans was 200 µM (≈ 536 µg/mL); in the assay with Staphylococcus aureus, 100 µM (≈ 268 µg/mL); against Escherichia coli, 20 µM (≈ 53.6 µg/mL).
